The NIST ThermoML archive (doi:10.1021/je201140q)

Columns and labels:
[1] = refractive index (Na D-line) (dimensionless); conditions: 298.15 K; 101.33 kPa; Liquid; Standard Abbe refractometry
[2] = for surface tension liquid-gas: 303.15 K, Maximal bubble pressure; for vapor or sublimation pressure / Normal boiling temperature: Ebulliometric method (Recirculating still)
[3] = xn = mol fraction of the nth substance listed; conditions: for mass density: 298.15 K, 101.3 kPa, Liquid, Vibrating tube method; for surface tension liquid-gas: 303.15 K, Maximal bubble pressure

CCO [ethanol]
Conditions | refractive index | surface tension liquid-gas [mN/m]
[1] | 1.36068 | –
[2] | – | 21.7

[2], Liquid
Conditions | vapor or sublimation pressure [kPa]
334.57 K | 50
344.02 K | 75
349.56 K | 94

Conditions | Normal boiling temperature [°C]
[2], Liquid | 78.30

CCO [ethanol] + C1CCOCC1
[3], x1 = 1
Conditions | mass density [kg/m3] | surface tension liquid-gas [mN/m]
– | 785.11 | 21.7

C1CCOCC1 [tetrahydropyran]
Conditions | refractive index | surface tension liquid-gas [mN/m]
[1] | 1.42 | –
[2] | – | 27.1

Conditions | mass density [kg/m3]
[2], 298.15 K, 101.3 kPa, Liquid, Vibrating tube method | 879.03

[2], Liquid
Conditions | vapor or sublimation pressure [kPa]
312.59 K | 18.01
319.62 K | 24.01
325.36 K | 30.01
331.7 K | 38.01
336.4 K | 45.01
339.33 K | 50
339.98 K | 51.01
344.26 K | 59.01
347.64 K | 66.01
350.74 K | 73.01
351.53 K | 75
353.61 K | 80.01
356.29 K | 87.01
358.81 K | 94.01
358.85 K | 94
361.55 K | 102.11

Conditions | Normal boiling temperature [°C]
[2], Liquid | 88.21

C1CCOCC1 [tetrahydropyran] + CCO
[3]
Conditions | mass density [kg/m3] | surface tension liquid-gas [mN/m]
x2 = 0 | 879.03 | 27.1
x2 = 0.03 | 877.14 | –
x2 = 0.068 | – | 26.91
x2 = 0.115 | 871.86 | –
x2 = 0.122 | – | 26.76
x2 = 0.193 | 866.85 | –
x2 = 0.223 | – | 26.5
x2 = 0.299 | 859.54 | –
x2 = 0.323 | – | 25.98
x2 = 0.42 | – | 25.34
x2 = 0.426 | 849.89 | –
x2 = 0.496 | 844.01 | –
x2 = 0.52 | – | 24.9
x2 = 0.599 | 834.65 | –
x2 = 0.604 | – | 24.35
x2 = 0.622 | – | 24.24
x2 = 0.657 | – | 24.07
x2 = 0.707 | – | 23.81
x2 = 0.716 | 822.74 | –
x2 = 0.722 | – | 23.64
x2 = 0.799 | 813.13 | –
x2 = 0.821 | – | 23.01
x2 = 0.91 | 798.6 | –
x2 = 0.918 | – | 22.42
x2 = 0.959 | 791.41 | –
x2 = 0.963 | – | 22
